Laboratory results taken from the NIST ThermoML archive (doi:10.1016/j.jct.2015.09.002).
± gives the expanded uncertainty stated by the source.

Experiment: xn = mol fraction of the nth substance listed
Conditions: 93.2 kPa, Liquid, Vibrating tube method

CCCCNCCCC [dibutylamine] + CC#N
mass density [kg/m3]
Conditions | 293.15 K | 298.15 K | 303.15 K | 308.15 K
x2 = 0 | 759.7 ± 2 | 755.61 ± 2 | 751.5 ± 2 | 747.38 ± 2
x2 = 0.0695 | 760.49 ± 2 | 756.33 ± 2 | 752.17 ± 2 | 748 ± 2
x2 = 0.081 | 760.6 ± 2 | 756.44 ± 2 | 752.27 ± 2 | 748.08 ± 2
x2 = 0.1023 | 760.85 ± 2 | 756.68 ± 2 | 752.5 ± 2 | 748.3 ± 2
x2 = 0.1527 | 761.32 ± 2 | 757.12 ± 2 | 752.9 ± 2 | 748.66 ± 2
x2 = 0.2029 | 761.82 ± 2 | 757.58 ± 2 | 753.32 ± 2 | 749.05 ± 2
x2 = 0.2499 | 762.19 ± 2 | 757.95 ± 2 | 753.65 ± 2 | 749.34 ± 2
x2 = 0.2996 | 762.67 ± 2 | 758.39 ± 2 | 754.06 ± 2 | 749.71 ± 2
x2 = 0.3542 | 763.23 ± 2 | 758.88 ± 2 | 754.51 ± 2 | 750.12 ± 2
x2 = 0.3978 | 763.73 ± 2 | 759.35 ± 2 | 754.95 ± 2 | 750.52 ± 2
x2 = 0.47 | 764.62 ± 2 | 760.17 ± 2 | 755.7 ± 2 | 751.19 ± 2
x2 = 0.4987 | 764.98 ± 2 | 760.52 ± 2 | 756.02 ± 2 | 751.49 ± 2
x2 = 0.5498 | 765.74 ± 2 | 761.23 ± 2 | 756.67 ± 2 | 752.09 ± 2
x2 = 0.6001 | 766.63 ± 2 | 762.05 ± 2 | 757.43 ± 2 | 752.78 ± 2
x2 = 0.6499 | 767.62 ± 2 | 762.97 ± 2 | 758.29 ± 2 | 753.59 ± 2
x2 = 0.6991 | 768.71 ± 2 | 763.99 ± 2 | 759.24 ± 2 | 754.46 ± 2
x2 = 0.7496 | 770.07 ± 2 | 765.28 ± 2 | 760.44 ± 2 | 755.59 ± 2
x2 = 0.8 | 771.64 ± 2 | 766.75 ± 2 | 761.82 ± 2 | 756.87 ± 2
x2 = 0.8494 | 773.46 ± 2 | 768.5 ± 2 | 763.47 ± 2 | 758.42 ± 2
x2 = 0.8994 | 775.72 ± 2 | 770.63 ± 2 | 765.48 ± 2 | 760.32 ± 2
x2 = 0.9293 | 777.27 ± 2 | 772.08 ± 2 | 766.87 ± 2 | 761.62 ± 2
x2 = 0.9394 | 777.86 ± 2 | 772.65 ± 2 | 767.41 ± 2 | 762.14 ± 2
x2 = 0.9498 | 778.5 ± 2 | 773.27 ± 2 | 768 ± 2 | 762.7 ± 2
x2 = 0.9596 | 779.13 ± 2 | 773.86 ± 2 | 768.55 ± 2 | 763.23 ± 2
x2 = 0.9699 | 779.82 ± 2 | 774.53 ± 2 | 769.19 ± 2 | 763.83 ± 2
x2 = 0.9799 | 780.54 ± 2 | 775.22 ± 2 | 769.85 ± 2 | 764.46 ± 2
x2 = 0.9897 | 781.26 ± 2 | 775.91 ± 2 | 770.51 ± 2 | 765.09 ± 2

CCCNCCC [dipropylamine] + CC#N
mass density [kg/m3]
Conditions | 293.15 K | 298.15 K | 303.15 K | 308.15 K
x2 = 0 | 738.18 ± 2 | 733.64 ± 2 | 729.07 ± 2 | 724.48 ± 2
x2 = 0.0106 | 738.6 ± 2 | 734.04 ± 2 | 729.47 ± 2 | 724.87 ± 2
x2 = 0.0215 | 738.86 ± 2 | 734.31 ± 2 | 729.71 ± 2 | 725.09 ± 2
x2 = 0.0323 | 739.1 ± 2 | 734.53 ± 2 | 729.92 ± 2 | 725.29 ± 2
x2 = 0.0406 | 739.28 ± 2 | 734.72 ± 2 | 730.09 ± 2 | 725.48 ± 2
x2 = 0.0507 | 739.51 ± 2 | 734.94 ± 2 | 730.32 ± 2 | 725.71 ± 2
x2 = 0.0605 | 739.75 ± 2 | 735.16 ± 2 | 730.53 ± 2 | 725.91 ± 2
x2 = 0.0684 | 739.93 ± 2 | 735.34 ± 2 | 730.7 ± 2 | 726.08 ± 2
x2 = 0.0801 | 740.21 ± 2 | 735.61 ± 2 | 730.96 ± 2 | 726.32 ± 2
x2 = 0.0926 | 740.51 ± 2 | 735.91 ± 2 | 731.26 ± 2 | 726.61 ± 2
x2 = 0.101 | 740.71 ± 2 | 736.11 ± 2 | 731.45 ± 2 | 726.79 ± 2
x2 = 0.1493 | 741.88 ± 2 | 737.23 ± 2 | 732.56 ± 2 | 727.89 ± 2
x2 = 0.2009 | 743.16 ± 2 | 738.47 ± 2 | 733.79 ± 2 | 729.06 ± 2
x2 = 0.2547 | 744.47 ± 2 | 739.78 ± 2 | 735.06 ± 2 | 730.34 ± 2
x2 = 0.3001 | 745.65 ± 2 | 740.94 ± 2 | 736.2 ± 2 | 731.45 ± 2
x2 = 0.3514 | 747.06 ± 2 | 742.32 ± 2 | 737.55 ± 2 | 732.77 ± 2
x2 = 0.3995 | 748.45 ± 2 | 743.68 ± 2 | 738.88 ± 2 | 734.07 ± 2
x2 = 0.4556 | 750.19 ± 2 | 745.39 ± 2 | 740.57 ± 2 | 735.71 ± 2
x2 = 0.5008 | 751.71 ± 2 | 746.88 ± 2 | 742.02 ± 2 | 737.15 ± 2
x2 = 0.551 | 753.52 ± 2 | 748.66 ± 2 | 743.77 ± 2 | 738.86 ± 2
x2 = 0.6037 | 755.61 ± 2 | 750.71 ± 2 | 745.77 ± 2 | 740.81 ± 2
x2 = 0.6481 | 757.56 ± 2 | 752.63 ± 2 | 747.66 ± 2 | 742.67 ± 2
x2 = 0.6992 | 760.02 ± 2 | 755.04 ± 2 | 750.02 ± 2 | 744.98 ± 2
x2 = 0.7495 | 762.68 ± 2 | 757.65 ± 2 | 752.58 ± 2 | 747.48 ± 2
x2 = 0.7997 | 765.7 ± 2 | 760.61 ± 2 | 755.49 ± 2 | 750.33 ± 2
x2 = 0.8496 | 769.02 ± 2 | 763.85 ± 2 | 758.66 ± 2 | 753.43 ± 2
x2 = 0.9002 | 772.87 ± 2 | 767.63 ± 2 | 762.35 ± 2 | 757.05 ± 2
x2 = 0.9092 | 773.6 ± 2 | 768.35 ± 2 | 763.04 ± 2 | 757.76 ± 2
x2 = 0.9194 | 774.47 ± 2 | 769.22 ± 2 | 763.9 ± 2 | 758.59 ± 2
x2 = 0.9298 | 775.37 ± 2 | 770.09 ± 2 | 764.79 ± 2 | 759.45 ± 2
x2 = 0.9492 | 777.14 ± 2 | 771.83 ± 2 | 766.49 ± 2 | 761.13 ± 2
x2 = 0.9697 | 779.11 ± 2 | 773.75 ± 2 | 768.36 ± 2 | 762.97 ± 2
x2 = 0.9892 | 781.03 ± 2 | 775.63 ± 2 | 770.22 ± 2 | 764.78 ± 2
